Reference: ChEMBL document CHEMBL1152385, “Cyanoguanidine-based lactam derivatives as a novel class of orally bioavailable factor Xa inhibitors” (Bioorg Med Chem Lett, 2009)

Columns and labels:
Coagulation factor X = Coagulation factor X (Homo sapiens, UniProt P00742); assay: Inhibition of human factor 10a-mediated cleavage of synthetic substrate S-2222
[1] = target: Amine oxidase [flavin-containing] A (Rattus norvegicus, UniProt P21396); assay: Inhibition of rat MAO-A at 10 uM
[2] = target: Amine oxidase [flavin-containing] B (Rattus norvegicus, UniProt P19643); assay: Inhibition of rat MAO-B at 10 uM
Sequence of Amine oxidase [flavin-containing] B (P19643 whole entry): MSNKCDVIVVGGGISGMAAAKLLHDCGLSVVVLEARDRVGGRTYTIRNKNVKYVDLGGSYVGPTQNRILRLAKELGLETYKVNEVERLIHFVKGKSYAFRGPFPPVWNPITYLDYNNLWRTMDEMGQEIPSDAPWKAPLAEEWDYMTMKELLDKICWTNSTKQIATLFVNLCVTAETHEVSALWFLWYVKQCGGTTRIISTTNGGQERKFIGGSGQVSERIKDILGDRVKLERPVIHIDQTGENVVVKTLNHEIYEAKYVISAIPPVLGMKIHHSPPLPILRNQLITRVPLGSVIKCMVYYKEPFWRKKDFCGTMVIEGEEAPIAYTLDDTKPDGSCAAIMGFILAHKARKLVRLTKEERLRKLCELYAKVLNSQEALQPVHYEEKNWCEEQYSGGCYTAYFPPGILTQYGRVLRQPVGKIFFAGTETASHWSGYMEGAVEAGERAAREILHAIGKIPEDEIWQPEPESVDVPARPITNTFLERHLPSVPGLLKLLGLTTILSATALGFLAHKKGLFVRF

[3] = target: T1, Voltage-gated L-type calcium channel (Rattus norvegicus, UniProt P22002+Q02485+P27732); assay: Inhibition of rat DHP binding site of L-type calcium channel at 10 uM
[4] = target: T1, Voltage-gated L-type calcium channel; assay: Inhibition of rat verapamil binding site of L-type calcium channel at 10 uM
[5] = target: Nuclear receptor subfamily 1 group I member 2 (Homo sapiens, UniProt O75469); assay: Activity at PXR
Cytochrome P450 2C19 [6] = target: T2, Cytochrome P450 2C19 (Homo sapiens, UniProt P33261); assay: Inhibition of CYP2C19 in human TC5 cells; assay type: ADME, cell-based
T2 sequence (P33261 whole entry): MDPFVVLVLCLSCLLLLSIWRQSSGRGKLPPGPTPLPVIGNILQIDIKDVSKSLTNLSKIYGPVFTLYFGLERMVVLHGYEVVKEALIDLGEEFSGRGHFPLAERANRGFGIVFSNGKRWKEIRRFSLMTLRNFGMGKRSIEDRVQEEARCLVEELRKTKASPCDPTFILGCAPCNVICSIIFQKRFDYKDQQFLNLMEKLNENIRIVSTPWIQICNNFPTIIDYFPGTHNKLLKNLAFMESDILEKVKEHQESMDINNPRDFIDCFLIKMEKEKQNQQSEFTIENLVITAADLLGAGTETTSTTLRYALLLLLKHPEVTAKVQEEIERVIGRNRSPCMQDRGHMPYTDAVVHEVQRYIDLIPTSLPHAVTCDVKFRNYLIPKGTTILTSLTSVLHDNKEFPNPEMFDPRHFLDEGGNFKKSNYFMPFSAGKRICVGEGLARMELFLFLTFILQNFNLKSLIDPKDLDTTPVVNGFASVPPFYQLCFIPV

Cytochrome P450 2D6 [7] = target: T3, Cytochrome P450 2D6 (Homo sapiens, UniProt P10635); assay: Inhibition of CYP2D6 in human TC5 cells; assay type: ADME, cell-based
T3 sequence (P10635 whole entry): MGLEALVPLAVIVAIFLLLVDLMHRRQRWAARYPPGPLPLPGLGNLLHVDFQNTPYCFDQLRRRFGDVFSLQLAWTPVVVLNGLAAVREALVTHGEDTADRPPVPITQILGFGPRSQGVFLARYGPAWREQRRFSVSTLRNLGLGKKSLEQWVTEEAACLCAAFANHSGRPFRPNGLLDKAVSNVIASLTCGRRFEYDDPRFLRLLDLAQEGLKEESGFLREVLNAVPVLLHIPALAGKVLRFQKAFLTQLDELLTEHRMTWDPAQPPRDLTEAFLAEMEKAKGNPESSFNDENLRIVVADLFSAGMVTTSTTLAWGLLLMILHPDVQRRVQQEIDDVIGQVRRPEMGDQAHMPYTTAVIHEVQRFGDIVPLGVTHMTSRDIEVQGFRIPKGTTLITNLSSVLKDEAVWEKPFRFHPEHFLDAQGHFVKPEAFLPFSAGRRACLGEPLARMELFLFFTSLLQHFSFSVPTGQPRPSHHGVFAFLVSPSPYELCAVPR

Cytochrome P450 2C8 = Cytochrome P450 2C8 (Homo sapiens, UniProt P10632); assay: Inhibition of CYP2C8; assay type: ADME
Sequence of Cytochrome P450 2C8 (P10632 whole entry): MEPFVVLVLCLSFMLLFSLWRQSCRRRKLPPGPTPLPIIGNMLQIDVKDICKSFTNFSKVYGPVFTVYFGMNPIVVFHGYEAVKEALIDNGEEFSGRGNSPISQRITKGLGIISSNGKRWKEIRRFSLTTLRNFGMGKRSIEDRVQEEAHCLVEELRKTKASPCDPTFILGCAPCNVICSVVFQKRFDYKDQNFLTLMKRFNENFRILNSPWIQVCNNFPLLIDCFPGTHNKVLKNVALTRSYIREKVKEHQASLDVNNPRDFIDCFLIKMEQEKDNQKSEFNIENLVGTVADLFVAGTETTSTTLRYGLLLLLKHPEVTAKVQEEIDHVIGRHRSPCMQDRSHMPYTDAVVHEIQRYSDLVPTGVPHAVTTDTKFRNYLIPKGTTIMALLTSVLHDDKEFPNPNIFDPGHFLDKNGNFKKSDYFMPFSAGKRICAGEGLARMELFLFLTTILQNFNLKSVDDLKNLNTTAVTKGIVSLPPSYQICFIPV

Cytochrome P450 2C19 [8] = target: T2, Cytochrome P450 2C19; assay: Inhibition of CYP2C19; assay type: ADME
Cytochrome P450 2D6 [9] = target: T3, Cytochrome P450 2D6; assay: Inhibition of CYP2D6; assay type: ADME
Cytochrome P450 2B6 = Cytochrome P450 2B6 (Homo sapiens, UniProt P20813); assay: Inhibition of CYP2B6; assay type: ADME
Sequence of Cytochrome P450 2B6 (P20813 whole entry): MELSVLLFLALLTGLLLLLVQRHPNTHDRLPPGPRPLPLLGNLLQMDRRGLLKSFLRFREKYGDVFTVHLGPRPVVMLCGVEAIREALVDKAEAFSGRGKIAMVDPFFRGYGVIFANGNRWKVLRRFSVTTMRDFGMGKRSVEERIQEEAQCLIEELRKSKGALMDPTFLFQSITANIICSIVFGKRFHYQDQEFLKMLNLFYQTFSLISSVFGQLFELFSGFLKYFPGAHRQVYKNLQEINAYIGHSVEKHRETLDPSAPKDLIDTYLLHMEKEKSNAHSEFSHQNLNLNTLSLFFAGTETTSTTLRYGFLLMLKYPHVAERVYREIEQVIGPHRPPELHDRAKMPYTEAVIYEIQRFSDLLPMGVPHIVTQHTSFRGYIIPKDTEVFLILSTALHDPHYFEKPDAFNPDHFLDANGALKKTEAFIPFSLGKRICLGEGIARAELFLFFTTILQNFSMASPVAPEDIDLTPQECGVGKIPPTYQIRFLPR

Cytochrome P450 2C9 [10] = target: T4, Cytochrome P450 2C9 (Homo sapiens, UniProt P11712); assay: Inhibition of CYP2C9; assay type: ADME
T4 sequence (P11712 whole entry): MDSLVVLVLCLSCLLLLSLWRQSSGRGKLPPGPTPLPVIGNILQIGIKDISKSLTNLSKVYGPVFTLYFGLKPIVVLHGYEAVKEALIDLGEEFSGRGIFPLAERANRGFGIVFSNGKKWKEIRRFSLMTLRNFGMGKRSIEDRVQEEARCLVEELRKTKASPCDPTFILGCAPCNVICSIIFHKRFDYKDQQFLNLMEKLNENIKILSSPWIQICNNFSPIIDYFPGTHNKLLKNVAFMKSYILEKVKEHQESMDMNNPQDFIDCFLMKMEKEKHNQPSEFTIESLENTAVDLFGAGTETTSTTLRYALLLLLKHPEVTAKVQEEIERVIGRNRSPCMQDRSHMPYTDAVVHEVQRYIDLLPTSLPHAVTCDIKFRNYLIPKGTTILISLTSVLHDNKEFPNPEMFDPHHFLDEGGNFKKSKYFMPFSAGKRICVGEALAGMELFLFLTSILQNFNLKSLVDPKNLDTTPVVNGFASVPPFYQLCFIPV

Cytochrome P450 3A4 [11] = target: T5, Cytochrome P450 3A4 (Homo sapiens, UniProt P08684); assay: Inhibition of CYP3A4 using BZR as substrate; assay type: ADME
T5 sequence (P08684 whole entry): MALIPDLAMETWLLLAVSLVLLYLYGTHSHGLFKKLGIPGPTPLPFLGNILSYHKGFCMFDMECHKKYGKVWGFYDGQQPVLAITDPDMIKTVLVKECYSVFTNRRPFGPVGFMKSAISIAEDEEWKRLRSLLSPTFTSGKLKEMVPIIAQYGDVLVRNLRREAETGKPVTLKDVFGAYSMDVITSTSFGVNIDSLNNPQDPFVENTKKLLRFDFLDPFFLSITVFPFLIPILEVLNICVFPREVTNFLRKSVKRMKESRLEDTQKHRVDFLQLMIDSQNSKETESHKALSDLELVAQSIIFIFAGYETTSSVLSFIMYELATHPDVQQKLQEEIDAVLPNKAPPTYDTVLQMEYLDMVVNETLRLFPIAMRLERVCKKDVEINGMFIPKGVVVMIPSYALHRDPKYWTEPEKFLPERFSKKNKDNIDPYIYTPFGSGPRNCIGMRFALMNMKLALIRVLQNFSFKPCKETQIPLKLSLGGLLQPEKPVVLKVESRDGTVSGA

Cytochrome P450 2C9 [12] = target: T4, Cytochrome P450 2C9; assay: Inhibition of CYP2C9 in human TC5 cells; assay type: ADME, cell-based
Cytochrome P450 1A2 = Cytochrome P450 1A2 (Homo sapiens, UniProt P05177); assay: Inhibition of CYP1A2; assay type: ADME
Cytochrome P450 3A4 [13] = target: T5, Cytochrome P450 3A4; assay: Inhibition of CYP3A4 using BFC as substrate; assay type: ADME
Prothrombin = Prothrombin (Homo sapiens, UniProt P00734); assay: Inhibition of thrombin
[14] = target: Vitamin K-dependent protein C (Homo sapiens, UniProt P04070); assay: Inhibition of activated protein C
[15] = target: Urokinase-type plasminogen activator (Homo sapiens, UniProt P00749); assay: Inhibition of u-PA
Plasminogen = Plasminogen (Homo sapiens, UniProt P00747); assay: Inhibition of plasmin
Sequence of Plasminogen (P00747 97-580 limits assumed): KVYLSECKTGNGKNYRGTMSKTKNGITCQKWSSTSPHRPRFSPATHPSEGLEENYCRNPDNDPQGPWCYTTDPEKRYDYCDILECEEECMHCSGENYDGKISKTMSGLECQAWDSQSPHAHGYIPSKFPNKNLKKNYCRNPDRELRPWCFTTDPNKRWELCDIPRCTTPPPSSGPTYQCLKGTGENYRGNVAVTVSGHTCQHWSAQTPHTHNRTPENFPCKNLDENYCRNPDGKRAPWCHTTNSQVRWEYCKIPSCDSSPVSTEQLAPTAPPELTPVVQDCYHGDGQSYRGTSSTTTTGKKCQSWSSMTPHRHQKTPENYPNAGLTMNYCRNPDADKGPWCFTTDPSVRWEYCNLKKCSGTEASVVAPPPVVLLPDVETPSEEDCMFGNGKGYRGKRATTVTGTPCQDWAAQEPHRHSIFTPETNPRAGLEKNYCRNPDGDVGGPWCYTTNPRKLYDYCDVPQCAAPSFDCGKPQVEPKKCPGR
Sequence of Plasminogen (P00747 581-810 limits assumed): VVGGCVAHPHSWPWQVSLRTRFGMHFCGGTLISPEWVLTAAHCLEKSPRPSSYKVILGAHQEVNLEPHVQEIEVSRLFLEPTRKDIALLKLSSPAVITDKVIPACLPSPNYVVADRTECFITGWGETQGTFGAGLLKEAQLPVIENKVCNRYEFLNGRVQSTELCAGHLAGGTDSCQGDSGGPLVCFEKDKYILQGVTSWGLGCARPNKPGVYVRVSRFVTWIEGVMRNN

[16] = target: Tissue-type plasminogen activator (Homo sapiens, UniProt P00750); assay: Inhibition of t-PA
Cytochrome P450 3A4 [17] = target: T5, Cytochrome P450 3A4; assay: Inhibition of CYP3A4 in human TC5 cells; assay type: ADME, cell-based
Rattus norvegicus = assay: Total clearance in rat at 7 mg/kg, iv; assay type: ADME, organism-based; parameters: dose 7 mg/kg, route intravenous; details: in vivo
[18] = Volume of distribution at steady state in rat at 7 mg/kg, iv; assay type: ADME, organism-based; parameters: dose 7 mg/kg, route intravenous; details: in vivo, read-out: Vdss
[19] = Half life in rat at 7 mg/kg, iv; assay type: ADME, organism-based; parameters: dose 7 mg/kg, route intravenous; details: in vivo
[20] = Mean residence time in rat at 7 mg/kg, iv; assay type: ADME, organism-based; parameters: dose 7 mg/kg, route intravenous; details: in vivo
[21] = Oral Bioavailability in rat at 10 mg/kg; assay type: ADME, organism-based; details: in vivo
Canis familiaris = assay: Total clearance in dog at 8.3 mg/kg, iv; assay type: ADME, organism-based, Canis lupus familiaris; parameters: dose 8.3 mg/kg, route intravenous; details: in vivo
[22] = Volume of distribution at steady state in dog at 8.3 mg/kg, iv; assay type: ADME, organism-based, Canis lupus familiaris; parameters: dose 8.3 mg/kg, route intravenous; details: in vivo, read-out: Vdss
[23] = Half life in dog at 8.3 mg/kg, iv; assay type: ADME, organism-based, Canis lupus familiaris; parameters: dose 8.3 mg/kg, route intravenous; details: in vivo
[24] = Mean residence time in dog at 8.3 mg/kg, iv; assay type: ADME, organism-based, Canis lupus familiaris; parameters: dose 8.3 mg/kg, route intravenous; details: in vivo
[25] = Oral bioavailability in dog at 7 mg/kg; assay type: ADME, organism-based, Canis lupus familiaris; details: in vivo
Rhesus monkey = assay: Total clearance in monkey at 10 mg/kg, iv; assay type: ADME, organism-based, Macaca mulatta; parameters: dose 10 mg/kg, route intravenous; details: in vivo
[26] = Volume of distribution at steady state in monkey at 10 mg/kg, iv; assay type: ADME, organism-based, Macaca mulatta; parameters: dose 10 mg/kg, route intravenous; details: rhesus monkey, in vivo, read-out: Vdss
[27] = Half life in monkey at 10 mg/kg, iv; assay type: ADME, organism-based, Macaca mulatta; parameters: dose 10 mg/kg, route intravenous; details: rhesus monkey, in vivo
[28] = Mean residence time in monkey at 10 mg/kg, iv; assay type: ADME, organism-based, Macaca mulatta; parameters: dose 10 mg/kg, route intravenous; details: rhesus monkey, in vivo
[29] = Bioavailability in monkey at 10 mg/kg, po; assay type: ADME, organism-based, Macaca mulatta; details: rhesus monkey, in vivo

Sequence of Coagulation factor X (P00742 41-179 limits assumed): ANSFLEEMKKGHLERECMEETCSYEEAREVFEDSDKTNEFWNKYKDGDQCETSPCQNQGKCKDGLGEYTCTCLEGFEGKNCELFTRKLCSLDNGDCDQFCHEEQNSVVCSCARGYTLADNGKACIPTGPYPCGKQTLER
Sequence of Coagulation factor X (P00742 235-488 limits assumed): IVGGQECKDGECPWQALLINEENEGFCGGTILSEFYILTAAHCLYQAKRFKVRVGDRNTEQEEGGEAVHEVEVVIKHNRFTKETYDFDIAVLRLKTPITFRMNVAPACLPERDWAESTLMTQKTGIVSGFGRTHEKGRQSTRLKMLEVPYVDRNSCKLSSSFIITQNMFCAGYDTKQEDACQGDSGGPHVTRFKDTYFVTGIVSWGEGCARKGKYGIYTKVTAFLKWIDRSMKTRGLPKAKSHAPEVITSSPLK

## Cc1cc2cc(N/C(=N\C#N)N[C@H]3CCCCN(CC(=O)N4CC5CC5C4)C3=O)ccc2o1 (stereo partly drawn)
Coagulation factor X
  IC50: 0.015 µM
Plasma
  EC: 56 µM

## Cc1nc2ccc(N=C(NC#N)N[C@H]3CCCCN(CC(=O)N4CCCC4)C3=O)cc2[nH]1
Coagulation factor X
  IC50: 11.9 µM

## Cc1cc2cc(N=C(NC#N)N[C@H]3CCCCN(CC(=O)N4CCCC4)C3=O)c(F)cc2o1
Coagulation factor X
  IC50: 0.076 µM

## Cc1nc2cc(N/C(=N\C#N)N[C@H]3CCCCN(CC(=O)N4CCCC4)C3=O)ccc2o1
Coagulation factor X
  IC50: 2.68 µM

## Cc1cc2cc(N/C(=N\C#N)N[C@H]3CCCCN(CC(=O)N4CCCC4)C3=O)cc(F)c2o1
Coagulation factor X
  IC50: 0.011 µM

## COc1cc(N=C(NC#N)N[C@H]2CCCCN(CC(=O)N3CCCC3)C2=O)cc2cc(C)oc12
Coagulation factor X
  IC50: 14.8 µM

## Cc1cc2cc(N/C(=N\C#N)N[C@H]3CCCCN(CC(=O)N4CCCC4)C3=O)cc(C(F)(F)F)c2o1
Coagulation factor X
  IC50: 0.167 µM

## Cc1cc2cc(N/C(=N\C#N)N[C@H]3CCN(CC(=O)N4CCCC4)C3=O)ccc2o1
Coagulation factor X
  IC50: > 32 µM

## Cc1cc2cc(N=C(NC#N)NC3CCCCCN(CC(=O)N4CCCC4)C3=O)ccc2o1 (racemic)
Coagulation factor X
  IC50: 0.195 µM

## Cn1cc2cc(N/C(=N\C#N)N[C@H]3CCCCN(CC(=O)N4CCCC4)C3=O)ccc2n1
Coagulation factor X
  IC50: 2.4 µM

## Cc1cc2cc(N/C(=N\C#N)N[C@H]3CCCCN(CC(=O)N4CCC[C@H]4CN)C3=O)ccc2o1
Coagulation factor X
  IC50: 0.386 µM

## Cc1cn2cc(N/C(=N\C#N)N[C@H]3CCCCN(CC(=O)N4CCCC4)C3=O)ccc2n1
Coagulation factor X
  IC50: > 34 µM

## Cc1cc2cc(N=C(NC#N)N[C@H]3CCCCN(CC(=O)N4CCCC4)C3=O)cc(C)c2o1
Coagulation factor X
  IC50: 0.021 µM

## Cc1cc2cc(N/C(=N\C#N)N[C@H]3CCCCN(CC(=O)N4CCCC4)C3=O)cc(Cl)c2o1
Coagulation factor X
  IC50: 0.027 µM

## Cc1cc2cc(N=C(NC#N)N[C@H]3CCCCN(CC(=O)N4CCCC4)C3=O)ccc2o1
[1]
  inhibition (INH): Not Active
[2]
  inhibition (INH): Not Active
[3]
  inhibition (INH): Not Active
[4]
  inhibition (INH): Not Active
[5]
  EC50: > 25 µM
Cytochrome P450 2C19 [6]
  IC50: > 200 µM
Cytochrome P450 2D6 [7]
  IC50: > 200 µM
Cytochrome P450 2C8
  IC50: > 40 µM
Cytochrome P450 2C19 [8]
  IC50: > 40 µM
Cytochrome P450 2D6 [9]
  IC50: > 40 µM
Cytochrome P450 2B6
  IC50: > 40 µM
Cytochrome P450 2C9 [10]
  IC50: 29.2 µM
Cytochrome P450 3A4 [11]
  IC50: > 40 µM
Cytochrome P450 2C9 [12]
  IC50: > 200 µM
Cytochrome P450 1A2
  IC50: > 40 µM
Cytochrome P450 3A4 [13]
  IC50: 18.5 µM
Prothrombin
  Ki: 6.6 µM
[14]
  Ki: > 18 µM
[15]
  Ki: > 7.8 µM
Plasminogen
  Ki: > 16 µM
[16]
  Ki: 3.7 µM
Cytochrome P450 3A4 [17]
  IC50: > 200 µM
Rattus norvegicus
  clearance: 1.7 mL/min/kg
[18]
  Vd: 0.19 L/kg
[19]
  half-life: 2.4 h
[20]
  MRT: 1.9 h
[21]
  bioavailability: 50%
Canis familiaris
  clearance: 0.12 mL/min/kg
[22]
  Vd: 0.11 L/kg
[23]
  half-life: 10.3 h
[24]
  MRT: 16 h
[25]
  bioavailability: 77%
Rhesus monkey
  clearance: 2.2 mL/min/kg
[26]
  Vd: 1.8 L/kg
[27]
  half-life: 2.9 h
[28]
  MRT: 1.5 h
[29]
  bioavailability: 49%

## Cc1oc2ccc(N=C(NC#N)N[C@H]3CCCCN(CC(=O)N4CCCC4)C3=O)cc2c1C
Coagulation factor X
  IC50: 0.349 µM

## N#C/N=C(\Nc1ccc2oc(C#N)cc2c1)N[C@H]1CCCCN(CC(=O)N2CCCC2)C1=O
Coagulation factor X
  IC50: 2.6 µM

## N#C/N=C(\Nc1ccc2occc2c1)N[C@H]1CCCCN(CC(=O)N2CCCC2)C1=O
Coagulation factor X
  IC50: 0.084 µM

## Cc1cc2cc(N/C(=N\C#N)N[C@H]3CCCCN(CC(=O)N4C5CCC4CNC5)C3=O)ccc2o1
Coagulation factor X
  IC50: 0.005 µM
Plasma
  EC: 11.5 µM

## Cc1cc2cc(N=C(NC#N)N[C@H]3CCCCN(CC(=O)N4CCCC4)C3=O)ccc2s1
Coagulation factor X
  IC50: 2.88 µM

## Cc1cc2cc(N=C(NC#N)N[C@@H]3CCN(CC(=O)N4CCCC4)C3=O)ccc2o1
Coagulation factor X
  IC50: 30 µM

## CCc1cc2cc(N=C(NC#N)N[C@H]3CCCCN(CC(=O)N4CCCC4)C3=O)ccc2o1
Coagulation factor X
  IC50: 15.5 µM

## N#C/N=C(\Nc1ccc2ccccc2c1)N[C@H]1CCCCN(CC(=O)N2CCCC2)C1=O
Coagulation factor X
  IC50: 0.78 µM

## Cc1coc2ccc(N=C(NC#N)N[C@H]3CCCCN(CC(=O)N4CCCC4)C3=O)cc12
Coagulation factor X
  IC50: 2.94 µM

## Cc1cc2cc(N=C(NC#N)N[C@H]3CCCCN(CC(=O)N4CCCC4)C3=O)ccc2[nH]1
Coagulation factor X
  IC50: > 34 µM

## Cc1cc2ccc(N/C(=N\C#N)N[C@H]3CCCCN(CC(=O)N4CCCC4)C3=O)cc2[nH]1
Coagulation factor X
  IC50: 1.3 µM

## CC(=O)NC[C@@H]1CCCN1C(=O)CN1CCCC[C@H](N/C(=N\C#N)Nc2ccc3oc(C)cc3c2)C1=O
Coagulation factor X
  IC50: 0.054 µM
Plasma
  EC: >50 µM

## Cc1cc2cc(N/C(=N\C#N)N[C@H]3CCCCN(CC(=O)N4CCC[C@@H]4CN)C3=O)ccc2o1
Coagulation factor X
  IC50: 0.022 µM
Plasma
  EC: 27 µM

## Cc1nc2ccc(N/C(=N\C#N)N[C@H]3CCCCN(CC(=O)N4CCCC4)C3=O)cc2o1
Coagulation factor X
  IC50: 18.8 µM

## Cc1cc2cc(N/C(=N\C#N)N[C@H]3CCCCN(CC(=O)N4CCC(Cc5ccccc5)C4)C3=O)ccc2o1 (stereo partly drawn)
Coagulation factor X
  IC50: 0.053 µM
Plasma
  EC: >50 µM

## Cc1cc2cc(N/C(=N\C#N)N[C@H]3CCCN(CC(=O)N4CCCC4)C3=O)ccc2o1
Coagulation factor X
  IC50: 0.928 µM

## Cc1cc2ccc(N/C(=N\C#N)N[C@H]3CCCCN(CC(=O)N4CCCC4)C3=O)cc2o1
Coagulation factor X
  IC50: > 34 µM

## CC(=O)NC[C@H]1CCCN1C(=O)CN1CCCC[C@H](N/C(=N\C#N)Nc2ccc3oc(C)cc3c2)C1=O
Coagulation factor X
  IC50: 0.028 µM
Plasma
  EC: 33 µM

## Cc1cc2c(F)c(N/C(=N\C#N)N[C@H]3CCCCN(CC(=O)N4CCCC4)C3=O)ccc2o1
Coagulation factor X
  IC50: 2.73 µM

## Cc1cc2cc(N/C(=N\C#N)N[C@H]3CCCCN(CC(=O)N4CCCC4Cc4ccccc4)C3=O)ccc2o1 (stereo partly drawn)
Coagulation factor X
  IC50: 0.019 µM
Plasma
  EC: >50 µM
